System: MCH receptors
Assay: MCH receptor activity class (method not given)
[1] = class by percent of control at 10^−7 M or IC50
[2] = class by percent of control at 10^-7 M or IC50
[3] = MCH receptor, class by percent of control at 10^-7 M or IC50
[4] = activity class per percent of control at 10^-7 M or IC50

| SMILES | class [2] | also measured |
| --- | --- | --- |
| COc1ccc(C(=O)N[C@H]2CC[C@@H](Nc3nc(C)cc(N(C)C)n3)CC2)cc1C(F)(F)F [compound 2981, N-(cis-4-{[4-(dimethylamino)-6-methylpyrimidin-2-yl]amino}cyclohexyl)-4-methoxy-3-(trifluoromethyl)benzamide] | – | class [1]: 2 (Class 2: The value of percent of control at 10^−7 M was from 40% to 60% or the value of IC′50 was from 50 nM to 200 nM.) |
| Cc1cc(C(=O)NC[C@H]2CC[C@@H](Nc3nc4c(c(N(C)C)n3)CCCC4)CC2)c(C(F)(F)F)o1 [compound 632] | 1 (Class 1: The value of percent of control at 10^−7 M was less than 40% or the value of IC50 was less than 50 nM.) | – |
| CN(C)c1nc(N[C@H]2CC[C@@H](NC(=S)Nc3cc(C(F)(F)F)ccc3F)CC2)nc2c1CCCC2 [compound 1977] | – | class [3]: 3 (Class 3 The value of percent of control at 10^−7 M was more than 60% or the value of IC50 was more than 200 nM.) |
| CN(C)c1ccnc(N[C@H]2CC[C@@H](NC(=O)c3ccc(-c4ccc(Cl)cc4[N+](=O)[O-])o3)CC2)n1 [compound 815, 5-(4-chloro-2-nitrophenyl)-N-(cis-4-{[4-(dimethylamino)pyrimidin-2-yl]amino}cyclohexyl)-2-furamide] | 1 (Class 1: The value of percent of control at 10^−7 M was less than 40% or the value of IC50 was less than 50 nM.) | – |
| CN(C)c1nc(N[C@H]2CC[C@@H](NC(=O)Nc3ccc(OC(F)(F)F)cc3)CC2)nc2c1CCCC2 [compound 1912] | – | class [3]: 3 (Class 3 The value of percent of control at 10^−7 M was more than 60% or the value of IC50 was more than 200 nM.) |
| CN(C)c1ccnc(N[C@H]2CC[C@@H](NC(=O)NCc3ccc(Cl)cc3Cl)CC2)n1 [compound 2230] | 3 (Class 3 The value of percent of control at 10^−7 M was more than 60% or the value of IC50 was more than 200 nM.) | – |
| CN(C)c1ccnc(N[C@H]2CC[C@@H](NC(=O)Nc3ccccc3C(F)(F)F)CC2)n1 [compound 2186] | 3 (Class 3 The value of percent of control at 10^−7 M was more than 60% or the value of IC50 was more than 200 nM.) | – |
| CN(C)c1nc(N[C@H]2CC[C@@H](NC(=S)NCCN3CCOCC3)CC2)nc2c1CCCC2 [compound 2074] | – | class [3]: 3 (Class 3 The value of percent of control at 10^−7 M was more than 60% or the value of IC50 was more than 200 nM.) |
| CN(C)c1ccnc(N[C@H]2CC[C@@H](CNCc3c[nH]c4ccccc34)CC2)n1 [compound 1245] | 3 (Class 3 The value of percent of control at 10^−7 M was more than 60% or the value of IC50 was more than 200 nM.) | – |
| CN(C)c1nc(N[C@H]2CC[C@@H](NC(=S)NCC3CC3)CC2)nc2c1CCCC2 [compound 2068] | – | class [3]: 3 (Class 3 The value of percent of control at 10^−7 M was more than 60% or the value of IC50 was more than 200 nM.) |
| CN(C)c1nc(N[C@H]2CC[C@@H](NC(=O)c3c4ccccc4cc4ccccc34)CC2)nc2c1CCCC2 [compound 1029] | – | class [4]: 3 (Class 3 The value of percent of control at 10^−7 M was more than 60% or the value of IC50 was more than 200 nM.) |
| CN(C)c1cc(N[C@H]2CC[C@@H](NC(=O)c3ccccc3)CC2)nc2ccccc12 [compound 93] | – | class [3]: 3 (Class 3 The value of percent of control at 10^−7 M was more than 60% or the value of IC50 was more than 200 nM.) |
| COC(=O)c1scc(C)c1NC(=S)N[C@H]1CC[C@@H](Nc2nc3c(c(N(C)C)n2)CCCC3)CC1 [compound 1791] | 3 (Class 3 The value of percent of control at 10^−7 M was more than 60% or the value of IC50 was more than 200 nM.) | – |
| Cc1cc(N(C)C)nc(N[C@H]2CC[C@@H](C(=O)NCc3ccccc3)CC2)n1 [compound 2798, cis-N-benzyl-4-{[4-(dimethylamino)-6-methylpyrimidin-2-yl]amino}cyclohexanecarboxamide] | – | class [1]: 2 (Class 2: The value of percent of control at 10^−7 M was from 40% to 60% or the value of IC′50 was from 50 nM to 200 nM.) |
| CCOc1ccc(OCC)c(CNC[C@H]2CC[C@@H](Nc3nccc(N(C)C)n3)CC2)c1 [compound 1290] | 1 (Class 1: The value of percent of control at 10^−7 M was less than 40% or the value of IC50 was less than 50 nM.) | – |
| Cc1nc(N[C@H]2CC[C@@H](NC(=O)c3ccc(Br)cc3)CC2)nc(N(C)C)c1C [compound 2849, 4-bromo-N-(cis-4-{[4-(dimethylamino)-5,6-dimethylpyrimidin-2-yl]amino}cyclohexyl)benzamide] | – | class [1]: 1 (Class 1: The value of percent of control at 10^−7 M was less than 40% or the value of IC50 was less than 50 nM.) |
| COc1cccc(CN[C@H]2CC[C@@H](Nc3nc4c(c(N(C)C)n3)CCCC4)CC2)c1 [compound 1345] | 3 (Class 3 The value of percent of control at 10^−7 M was more than 60% or the value of IC50 was more than 200 nM.) | – |
| COc1cc(CC(=O)N[C@H]2CC[C@@H](Nc3nc4c(c(N(C)C)n3)CCCC4)CC2)ccc1OCc1ccccc1 [compound 1012] | – | class [4]: 3 (Class 3 The value of percent of control at 10^−7 M was more than 60% or the value of IC50 was more than 200 nM.) |
| Cc1noc(-c2ccccc2)c1NC(=O)N[C@H]1CC[C@@H](Nc2cc(N(C)C)c3ccccc3n2)CC1 [compound 2121, N-(cis-4-{[4-(dimethylamino)quinolin-2-yl]amino}cyclohexyl)-N′-(3-methyl-5-phenylisoxazol-4-yl)urea] | 2 (Class 2: The value of percent of control at 10^−7 M was from 40% to 60% or the value of IC′50 was from 50 nM to 200 nM.) | – |

| SMILES | class [2] | also measured |
| --- | --- | --- |
| Cc1cnc(N[C@H]2CC[C@@H](NCc3cc(Cl)cc(Cl)c3)CC2)nc1N(C)C [compound 3001] | – | class [1]: 3 (Class 3 The value of percent of control at 10^−7 M was more than 60% or the value of IC50 was more than 200 nM.) |
| CN(C)c1nc(N[C@H]2CC[C@@H](NC(=S)Nc3cc(C(F)(F)F)cc(C(F)(F)F)c3)CC2)nc2c1CCCC2 [compound 1927] | – | class [3]: 3 (Class 3 The value of percent of control at 10^−7 M was more than 60% or the value of IC50 was more than 200 nM.) |
| CCOc1cc(OCC)cc(C(=O)N[C@H]2CC[C@@H](Nc3nc(C)c(C)c(N(C)C)n3)CC2)c1 [compound 2860] | – | class [1]: 1 (Class 1: The value of percent of control at 10^−7 M was less than 40% or the value of IC50 was less than 50 nM.) |
| CN(C)c1ccnc(N[C@H]2CC[C@@H](CNCc3cc(Cl)ccc3Cl)CC2)n1 [compound 1534] | – | class (activity class 1-3: percent of control at 10^-7 M or IC50): 3 (Class 3 The value of percent of control at 10^−7 M was more than 60% or the value of IC50 was more than 200 nM.) |
| CN(C)c1ccnc(N[C@H]2CC[C@@H](NC(=O)C(CC(=O)c3ccc(Cl)cc3)SCc3ccc(Cl)cc3)CC2)n1 (relative stereo) [compound 881] | 3 (Class 3 The value of percent of control at 10^−7 M was more than 60% or the value of IC50 was more than 200 nM.) | – |
| Cc1cc(N(C)C)nc(N[C@H]2CC[C@@H](C(=O)NCc3cccc(F)c3F)CC2)n1 [compound 2820, cis-N-(2,3-difluorobenzyl)-4-{[4-(dimethylamino)-6-methylpyrimidin-2-yl]amino}cyclohexanecarboxamide] | – | class [1]: 1 (Class 1: The value of percent of control at 10^−7 M was less than 40% or the value of IC50 was less than 50 nM.) |
| CN(C)c1cc(N[C@H]2CC[C@@H](NC(=O)Nc3c(Cl)cccc3C(F)(F)F)CC2)nc2ccccc12 [compound 2103] | 3 (Class 3 The value of percent of control at 10^−7 M was more than 60% or the value of IC50 was more than 200 nM.) | – |
| COc1ccc(NC(=O)N[C@H]2CC[C@@H](Nc3nc4c(c(N(C)C)n3)CCCC4)CC2)cc1OC [compound 1720, N-(3,4-dimethoxyphenyl)-N′-(cis-4-{[4-(dimethylamino)-5,6,7,8-tetrahydroquinazolin-2-yl]amino}cyclohexyl)urea] | 2 (Class 2: The value of percent of control at 10^−7 M was from 40% to 60% or the value of IC′50 was from 50 nM to 200 nM.) | – |
| CN(C)c1cc(N[C@H]2CC[C@@H](NCCOc3ccccc3Cl)CC2)nc2ccccc12 [compound 1449] | 3 (Class 3 The value of percent of control at 10^−7 M was more than 60% or the value of IC50 was more than 200 nM.) | – |
| COc1cccc(CC(=O)NC[C@H]2CC[C@@H](Nc3nccc(N(C)C)n3)CC2)c1 [compound 412] | 2 (Class 2: The value of percent of control at 10^−7 M was from 40% to 60% or the value of IC′50 was from 50 nM to 200 nM.) | – |
| COC(=O)[C@H](CCSC)NC(=O)N[C@H]1CC[C@@H](Nc2cc(N(C)C)c3ccccc3n2)CC1 (relative stereo) [compound 2129] | 3 (Class 3 The value of percent of control at 10^−7 M was more than 60% or the value of IC50 was more than 200 nM.) | – |
| COc1ccc(C(=O)NC[C@H]2CC[C@@H](Nc3nc(C)cc(N(C)C)n3)CC2)cc1 [compound 2754] | – | class [1]: 3 (Class 3 The value of percent of control at 10^−7 M was more than 60% or the value of IC50 was more than 200 nM.) |
| CCCCc1ccc(NC(=O)N[C@H]2CC[C@@H](Nc3nc4c(c(N(C)C)n3)CCCC4)CC2)cc1 [compound 1897] | – | class [3]: 3 (Class 3 The value of percent of control at 10^−7 M was more than 60% or the value of IC50 was more than 200 nM.) |
| CN(C)c1ccnc(N[C@H]2CC[C@@H](CNCc3ccc(N(C)C)c4ccccc34)CC2)n1 [compound 1281] | 2 (Class 2: The value of percent of control at 10^−7 M was from 40% to 60% or the value of IC′50 was from 50 nM to 200 nM.) | – |
| COc1ccc(CCCCNC[C@H]2CC[C@@H](Nc3cc(N(C)C)c4ccccc4n3)CC2)cc1 [compound 1464] | 3 (Class 3 The value of percent of control at 10^−7 M was more than 60% or the value of IC50 was more than 200 nM.) | – |
| CN(C)c1ccnc(N[C@H]2CC[C@@H](CNC(=O)c3cc(Cl)cc(Cl)c3)CC2)n1 [compound 375] | 2 (Class 2: The value of percent of control at 10^−7 M was from 40% to 60% or the value of IC′50 was from 50 nM to 200 nM.) | – |
| CN(C)c1ccnc(N[C@H]2CC[C@@H](CNCc3csc4ccccc34)CC2)n1 [compound 1299] | 3 (Class 3 The value of percent of control at 10^−7 M was more than 60% or the value of IC50 was more than 200 nM.) | – |
| COc1ccc(CNC[C@H]2CC[C@@H](Nc3cc(N(C)C)c4ccccc4n3)CC2)c(OC)c1OC [compound 1132] | – | class [4]: 3 (Class 3 The value of percent of control at 10^−7 M was more than 60% or the value of IC50 was more than 200 nM.) |

Reference: patent publication US20050197350A1, “Novel quinoline, tetrahydroquinazoline, and pyrimidine derivatives and methods of treatment related to the use thereof” (TAISHO PHARMACEUTICAL CO., LTD., priority 2003, published 2005)
